Literature values in patent US20190201327A1 (AMPERSAND BIOPHARMACEUTICALS, INC., priority 2017, published 2019).

System: neovascularization

SMILES: CC1=C(CO)C(=O)O[C@@H]([C@@H](C)[C@H]2CC[C@H]3[C@@H]4C[C@H]5O[C@]56[C@@H](O)C(N=[N+]=[N-])CC(=O)[C@]6(C)[C@H]4CC[C@]23C)C1 (stereo partly shown) [3-azido WFA, 3-azido Withaferin A]
- neovascularization in vivo: abrogated neovascularization in vivo in a dose dependent manner
